# Data reported in ChEMBL document CHEMBL1201862, “PubChem BioAssay data set” (2004).
# Active and inactive are the calls of the source.
# Columns and labels:
# [1] = target: T1, DNA repair protein RAD52 homolog (Homo sapiens, UniProt P43351); format: functional, biochemical
# T1 sequence (P43351 whole entry): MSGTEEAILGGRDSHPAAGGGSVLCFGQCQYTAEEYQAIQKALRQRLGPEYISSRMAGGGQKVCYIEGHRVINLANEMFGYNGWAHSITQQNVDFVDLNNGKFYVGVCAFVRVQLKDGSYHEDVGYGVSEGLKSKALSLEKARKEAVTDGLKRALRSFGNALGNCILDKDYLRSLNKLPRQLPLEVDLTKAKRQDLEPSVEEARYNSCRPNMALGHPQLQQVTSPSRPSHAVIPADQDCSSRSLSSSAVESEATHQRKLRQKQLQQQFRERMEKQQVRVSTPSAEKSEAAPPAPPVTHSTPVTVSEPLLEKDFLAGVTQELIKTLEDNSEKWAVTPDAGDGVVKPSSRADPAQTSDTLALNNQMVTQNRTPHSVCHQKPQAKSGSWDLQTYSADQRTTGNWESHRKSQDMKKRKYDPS
# [2] = tested on: A-375; experiment: proliferation inhibition in MITF-low A375 cells – cell-based, cherry-pick samples, set 2, counter-screen for MITF modulator project, dose response (AID 540335); format: functional; conditions: Homo sapiens
# [3] = target: T2, Ubiquitin-conjugating enzyme E2 N (Homo sapiens, UniProt P61088); format: functional;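 also: Dose-response confirmation in a TR-FRET assay detecting UBC13-driven polyubiquitin chain formation, inhibition measured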
# T2 sequence (P61088 whole entry): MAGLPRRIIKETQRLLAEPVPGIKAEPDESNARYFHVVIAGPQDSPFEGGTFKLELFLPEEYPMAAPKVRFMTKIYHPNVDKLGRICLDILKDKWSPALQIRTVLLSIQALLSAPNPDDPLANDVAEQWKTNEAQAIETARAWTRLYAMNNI
# [4] = target: T3, Microphthalmia-associated transcription factor (Homo sapiens, UniProt O75030); experiment: reducers of TRPM1 reporter luminescence, concentration series – cell-based, SK-MEL-5, cherry-picked, set 3, MITF inhibitor project, dose response (AID 493073); format: functional;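 also: SK-MEL-5 melanoma cells with luciferase driven by the MITF target TRPM1 promoter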
# T3 sequence (O75030 whole entry): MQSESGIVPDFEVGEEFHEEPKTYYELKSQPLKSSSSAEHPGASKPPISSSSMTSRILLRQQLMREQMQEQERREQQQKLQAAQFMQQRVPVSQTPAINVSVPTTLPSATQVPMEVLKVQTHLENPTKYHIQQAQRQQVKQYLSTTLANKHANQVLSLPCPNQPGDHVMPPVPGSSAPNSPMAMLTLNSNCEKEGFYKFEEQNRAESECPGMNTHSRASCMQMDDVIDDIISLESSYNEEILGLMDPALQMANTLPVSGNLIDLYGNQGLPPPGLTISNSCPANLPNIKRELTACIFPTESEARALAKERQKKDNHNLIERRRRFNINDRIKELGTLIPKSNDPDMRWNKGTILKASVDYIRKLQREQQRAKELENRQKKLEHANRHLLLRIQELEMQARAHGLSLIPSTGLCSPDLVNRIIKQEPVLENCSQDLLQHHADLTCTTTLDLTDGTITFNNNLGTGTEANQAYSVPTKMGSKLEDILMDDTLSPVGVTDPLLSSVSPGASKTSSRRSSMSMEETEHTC
# [5] = target: Beta-2 adrenergic receptor (Homo sapiens, UniProt P07550); experiment: ADRB2 activation measured by internalization – cell-based, FAP fluorogen, flow cytometry, cherry pick 1, dose response (AID 588763); format: functional
# Beta-2 adrenergic receptor, sequence (P07550 whole entry): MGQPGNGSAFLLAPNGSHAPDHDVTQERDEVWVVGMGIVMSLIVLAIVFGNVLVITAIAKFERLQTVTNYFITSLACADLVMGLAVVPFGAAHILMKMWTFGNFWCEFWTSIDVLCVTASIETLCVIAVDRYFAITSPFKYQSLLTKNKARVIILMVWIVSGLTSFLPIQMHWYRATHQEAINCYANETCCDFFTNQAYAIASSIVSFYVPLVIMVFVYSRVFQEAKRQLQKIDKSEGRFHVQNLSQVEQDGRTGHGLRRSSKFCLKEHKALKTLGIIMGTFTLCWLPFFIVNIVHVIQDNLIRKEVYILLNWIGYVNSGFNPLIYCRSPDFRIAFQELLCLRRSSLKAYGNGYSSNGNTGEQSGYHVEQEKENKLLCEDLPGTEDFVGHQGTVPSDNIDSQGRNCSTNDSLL
# [6] = Luminescence Cell-Based Dose Confirmation HTS to Identify Activators of 5'UTR Stem-Loop Driven Alpha-Synuclein mRNA Translation in H4 Neuroglioblastoma Cells. [Related pubchem assays: 1829 (Project Summary), 1814 (Primary HTS)]; format: functional
# [7] = tested on: H4; experiment: Luminescence Cell-Based Dose Response HTS to Identify Activators of 5'UTR Stem-Loop Driven Prion Protein mRNA Translation in H4 Neuroglioblastoma Cells. [Related pubchem assays: 1829 (Project Summary), 1814 (Primary HTS)]; format: functional; conditions: Homo sapiens
# [8] = cells; format: functional, cell-based
# [9] = cells; format: functional, cell-based; remark: listed apart in the source
# [10] = Luminescence Cell-Based Dose Response HTS to Identify Activators of Luciferase Translation or Activity in H4 […] Cells. [Related pubchem assays: 1829 (Project Summary), 1814 (Primary HTS)]; format: functional
# [11] = tested on: HEK293; experiment: cells; format: functional, cell-based; conditions: Homo sapiens
# [12] = target: T4, Nuclear receptor subfamily 0 group B member 1 (Homo sapiens, UniProt P51843); experiment: Luminescence-based cell-based high throughput dose response assay for inhibitors of the orphan nuclear receptor subfamily 0, group B, member 1 (DAX1; NR0B1). [Related pubchem assays (depositor defined):AID504766, AID504790]; format: functional
# T4 sequence (P51843 whole entry): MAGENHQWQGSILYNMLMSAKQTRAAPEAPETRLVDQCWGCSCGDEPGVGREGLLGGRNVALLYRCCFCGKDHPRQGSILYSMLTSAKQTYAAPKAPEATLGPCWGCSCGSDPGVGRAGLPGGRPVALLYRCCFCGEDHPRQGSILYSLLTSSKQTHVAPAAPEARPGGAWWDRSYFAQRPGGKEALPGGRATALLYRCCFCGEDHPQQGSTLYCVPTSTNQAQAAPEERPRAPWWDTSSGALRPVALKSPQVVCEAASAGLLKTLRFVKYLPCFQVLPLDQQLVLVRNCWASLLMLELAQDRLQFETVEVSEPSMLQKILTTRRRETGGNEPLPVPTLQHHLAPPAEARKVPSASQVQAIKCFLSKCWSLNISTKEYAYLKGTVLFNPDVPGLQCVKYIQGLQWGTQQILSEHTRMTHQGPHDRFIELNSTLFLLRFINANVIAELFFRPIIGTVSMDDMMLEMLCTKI
# [13] = target: T5, Short transient receptor potential channel 4 (Mus musculus, UniProt Q9QUQ5); experiment: calcium entry via TRPC4 opening agents – cell-based, HEK293 TRPC4/mu-opioid, Fluo-4 calcium, dose response (AID 434937); format: functional
# T5 sequence (Q9QUQ5 whole entry): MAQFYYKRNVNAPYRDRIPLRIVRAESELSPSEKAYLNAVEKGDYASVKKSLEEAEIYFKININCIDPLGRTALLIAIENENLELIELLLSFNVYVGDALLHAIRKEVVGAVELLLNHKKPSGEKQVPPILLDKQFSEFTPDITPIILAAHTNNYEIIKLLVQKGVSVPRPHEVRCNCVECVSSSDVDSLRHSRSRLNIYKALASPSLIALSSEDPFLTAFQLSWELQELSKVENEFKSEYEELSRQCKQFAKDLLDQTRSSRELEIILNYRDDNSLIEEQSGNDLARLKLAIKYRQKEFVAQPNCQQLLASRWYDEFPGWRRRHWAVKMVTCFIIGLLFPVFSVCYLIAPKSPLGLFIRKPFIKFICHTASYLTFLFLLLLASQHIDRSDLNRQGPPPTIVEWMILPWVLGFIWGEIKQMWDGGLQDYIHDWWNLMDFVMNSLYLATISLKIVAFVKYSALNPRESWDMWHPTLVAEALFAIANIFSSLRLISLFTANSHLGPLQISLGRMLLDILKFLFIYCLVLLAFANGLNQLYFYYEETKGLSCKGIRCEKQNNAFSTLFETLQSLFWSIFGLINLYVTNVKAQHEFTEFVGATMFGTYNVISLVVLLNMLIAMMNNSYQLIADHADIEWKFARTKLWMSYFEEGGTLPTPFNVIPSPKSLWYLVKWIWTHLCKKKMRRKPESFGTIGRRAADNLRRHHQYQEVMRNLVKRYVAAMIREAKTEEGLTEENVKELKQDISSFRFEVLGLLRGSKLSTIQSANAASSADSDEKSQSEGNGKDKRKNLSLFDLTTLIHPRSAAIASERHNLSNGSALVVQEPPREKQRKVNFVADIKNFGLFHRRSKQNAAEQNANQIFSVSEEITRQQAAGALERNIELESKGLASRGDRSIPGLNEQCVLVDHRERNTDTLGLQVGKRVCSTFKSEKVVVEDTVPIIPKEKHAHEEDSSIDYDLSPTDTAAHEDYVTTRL
# [14] = HPDE-C7 pancreatic duct cell viability loss – fluorescence, HTS (AID 430); format: functional, cell-based; conditions: Homo sapiens
# [15] = viability loss of HPDE-C7K cells – cell-based, fluorescence, HTS, primary screen (AID 431); format: functional; conditions: Homo sapiens
# [16] = target: T6, Endoribonuclease toxin MazF (Escherichia coli K-12, UniProt P0AE70); experiment: activation of MazEF endoribonuclease cleavage – biochemical, fluorescence, single-stranded RNA substrate, uHTS hits, dose response (AID 588481); format: functional
# T6 sequence (P0AE70 whole entry): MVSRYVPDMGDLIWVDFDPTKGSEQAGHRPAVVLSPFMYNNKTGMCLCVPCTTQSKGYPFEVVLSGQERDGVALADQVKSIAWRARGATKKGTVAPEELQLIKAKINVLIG
# [17] = target: T6, Endoribonuclease toxin MazF; experiment: substrate-only fluorescence increase artefacts – biochemical, single-stranded RNase substrate, counter-screen for MazEF activator project, dose response (AID 588502); format: functional
# [18] = tested on: Jurkat; experiment: blockers of NF-kB activation in T cells – Jurkat, luciferase reporter, luminescence, B- and T-cell, dose response (AID 489004); format: functional, cell-based; conditions: Homo sapiens;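 also: NF-kB luciferase reporter Jurkat cells stimulated with PMA plus ionomycin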
# [19] = HIV-1 AD8 envelope cell-cell fusion blockers – cherry-pick, dose response (AID 652062); format: functional, cell-based;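 also: luciferase signal from cell-cell fusion driven by HIV-1 clade B AD8 Env; potency is for inhibitors of fusion seen as a drop in luminescence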
# [20] = Luminescence Cell-Based Dose Retest to Confirm Inhibitors of Cancer Stem Cells. [Related pubchem assays (depositor defined):AID2717, AID2721]; format: functional; conditions: Homo sapiens
# [21] = HEK-293T viability loss, compound-treated – cell-based, uHTS hits, cytotoxicity control for B/T-cell NF-kB inhibitor project, dose response (AID 489019); format: functional;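 also: IC50 reflects cytotoxicity as loss of cell viability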
# [22] = off-target signal loss in HeLa-CEM21 co-culture – HeLa F-luc CTL cells, cherry-picked, counter-screen for HIV-1 Env fusion inhibitor project, dose response (AID 652040); format: functional, cell-based;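 also: potency for signal decrease marking cytotoxic or nonspecific inhibition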
# [23] = target: Paired box protein Pax-8 (Homo sapiens, UniProt Q06710); experiment: PAX8 transcriptional activity inhibition in RMG-I – RMG-I cells, luciferase, cherry-pick, dose response (AID 687027); format: functional, cell-based;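 also: luciferase reporter driven by Pax8 target thyroperoxidase promoter measured by SteadyGlo luminescence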
# Paired box protein Pax-8, sequence (Q06710 whole entry, the tested form may be a part): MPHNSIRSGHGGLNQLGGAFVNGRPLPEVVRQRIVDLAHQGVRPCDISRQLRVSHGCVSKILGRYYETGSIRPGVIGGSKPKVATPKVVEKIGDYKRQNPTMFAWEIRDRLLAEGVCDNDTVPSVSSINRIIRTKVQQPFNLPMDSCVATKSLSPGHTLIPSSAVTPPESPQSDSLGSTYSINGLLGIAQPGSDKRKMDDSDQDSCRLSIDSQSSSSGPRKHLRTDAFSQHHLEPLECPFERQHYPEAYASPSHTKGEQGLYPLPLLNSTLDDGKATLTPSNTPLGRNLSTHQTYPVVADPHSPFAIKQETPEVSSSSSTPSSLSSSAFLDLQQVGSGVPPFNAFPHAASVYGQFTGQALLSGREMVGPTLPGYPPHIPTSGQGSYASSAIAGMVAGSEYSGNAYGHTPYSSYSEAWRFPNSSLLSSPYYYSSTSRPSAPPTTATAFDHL
# [24] = blockers of HIV-1 ZM109 envelope-driven cell-cell fusion – HeLa effector, CEM target cells, luciferase, cherry-pick, dose response (AID 652058); format: functional, cell-based;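 also: luciferase signal from HIV-1 Env mediated cell-cell fusion of effector and target cells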
# [25] = blockers of HIV-1 envelope-mediated cell-cell fusion – cherry-pick, dose response (AID 652057); format: functional, cell-based
# [26] = viability loss in CEM21 cells – cell-based, CellTiter-Glo luminescence, cherry-picked, cytotoxicity control for viral fusion inhibitor project, dose response (AID 652042); format: functional;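 also: potency for signal decrease meaning cytotoxicity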
# [27] = target: T5, Short transient receptor potential channel 4; experiment: block of DAMGO-driven TRPC4 calcium entry – cell-based, HEK293 TRPC4/mu-opioid, Fluo-4 calcium, dose response (AID 434942); format: functional;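 also: potency of inhibitors blocking the TRPC4 calcium response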
# [28] = activation of miR-122 Renilla sensor silencing – cell-based, Huh7 psiCHECK-miR122, Renilla luciferase, cherry-picked, dose response (AID 651956); format: functional;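 also: huh7 hepatoma cells stably carrying a psiCHECK-2 miR-122 sensor plasmid; renilla luciferase signal reporting endogenous miR-122 activity after 48 h compound exposure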
# [29] = general mammalian cell viability loss – inhibitor set, cherry-pick, set 2, cytotoxicity control for miR-122 modulator project, dose response (AID 720697); format: functional, cell-based
# [30] = alpha-synuclein stem-loop luciferase translation blockers – H4 neuroglioma cells, luminescence, confirmation (AID 1988); format: functional, cell-based
# [31] = Luminescence Cell-Based Dose Response HTS to Identify Inhibitors of 5'UTR Stem-Loop Driven Prion Protein mRNA Translation in H4 Neuroglioblastoma Cells. [Related pubchem assays: 1827 (Project Summary), 1813 (Primary HTS)]; format: functional
smiles,measurement,setting,value
Cc1c(CCOC(=O)c2ccc(Cl)cc2Cl)sc[n+]1CC(=O)c1ccc(Br)cc1,AC50,[1],13 µM (active)
same,AC50,[2],23.5 µM (active)
same,IC50,[3],> 20 µM (inactive)
same,AC50,[4],19.8 µM (active)
O=C1C2CCCCN2C(=O)N1CCCCN1CCN(c2cccc(C(F)(F)F)c2)CC1 (configuration not stated),EC50,[5],2.52 µM (active)
COc1ccc(C(=O)NC2=Nc3ccccc3N=C(C)C2c2ccccc2)cc1 (configuration not stated),EC50,[6],9.66 µM (active)
same,EC50,[7],18.9 µM (active)
same,EC50,[8],34.7 µM (active)
same,EC50,[9],78.6 µM (active)
same,EC50,[10],40.7 µM (active)
same,IC50,[11],3.47 µM (active)
same,IC50,[12],> 67.5 µM (inactive)
CCCCN(CC)CCCNC(=O)Cn1nc(Cc2ccncc2)c2ccccc2c1=O,EC50,[13],0.168 µM (active)
same,EC50,[14],> 20 µM (not active)
same,EC50,[15],> 20 µM (not active)
O=C(Nc1ccc2oc(-c3ccccc3)nc2c1)c1cc(-n2cnnc2)ccc1Cl,EC50,[16],> 99 µM (inactive)
same,EC50,[17],> 99 µM (inactive)
CN(C)S(=O)(=O)c1cc(NC2CC(=O)N(c3ccc(F)cc3)C2=O)ccc1Cl (configuration not stated),IC50,[11],> 67.5 µM (inactive)
same,IC50,[12],> 67.5 µM (inactive)
C[C@@H]1O[C@@H](O[C@@H]2C=C3CC[C@@H]4C(CC[C@]5(C)[C@@H](c6ccc(=O)oc6)CC[C@]45O)[C@@]3(C)CC2)[C@H](O)[C@H](O)[C@H]1O (some centres not stated),IC50,[18],0.33 µM (active)
same,AC50,[19],0.54 µM (active)
same,AC50,[20],< 0.16 µM (active)
same,IC50,[21],> 80 µM (inactive)
same,AC50,[22],< 0.26 µM (active)
same,AC50,[23],< 0.26 µM (active)
same,AC50,[24],0.319 µM (active)
same,AC50,[25],0.799 µM (active)
same,AC50,[26],0.613 µM (active)
OCC1(CC2CCCCO2)CCN(Cc2nc3ccccc3[nH]2)CC1 (configuration not stated),EC50,[13],5.31 µM (active)
same,EC50,[27],3.35 µM (active)
Nc1nc(Cl)nc2c1ncn2[C@H]1C[C@H](O)[C@@H](CO)O1 [CLADRIBINE],AC50,[28],50.9 µM (active)
same,IC50,[18],0.66 µM (active)
same,AC50,[20],0.24 µM (active)
same,IC50,[21],> 80 µM (inactive)
same,AC50,[29],9.07 µM (active)
same,EC50,[30],2.96 µM (active)
same,EC50,[31],4.8 µM (active)
